Laboratory results published in PubChem BioAssay AID1259407 (Chemical Carcinogenesis Research Information System (CCRIS), 2018).
Activity calls are given as the source filed them. How the calls were made is not given here.

Test system: CCRIS mutagenicity, Ames/micronucleus/aberration tests
Assay: CCRIS mutagenicity studies

Measured: mutagenic call

CCN(CC)c1ccc(N)cc1
active: End Point: IN VITRO CHROMOSOMAL ABERRATIONS, Test System: CHINESE HAMSTER OVARY CELLS (CHO), Metabolic Activation: NONE active; positive (structural changes) | Test System: AMES SALMONELLA TYPHIMURIUM, Strain/Indicator: TA97, Metabolic Activation: HAMSTER, LIVER, S-9, AROCLOR 1254 (10%), Method: PREINCUBATION active; positive | Test System: AMES SALMONELLA TYPHIMURIUM, Strain/Indicator: TA98, Metabolic Activation: HAMSTER, LIVER, S-9, AROCLOR 1254 (10%), Method: PREINCUBATION active; positive | Test System: AMES SALMONELLA TYPHIMURIUM, Strain/Indicator: TA98, Metabolic Activation: RAT, LIVER, S-9, AROCLOR 1254 (10%), Method: PREINCUBATION active; positive | Test System: AMES SALMONELLA TYPHIMURIUM, Strain/Indicator: TA100, Metabolic Activation: HAMSTER, LIVER, S-9, AROCLOR 1254 (10%), Method: PREINCUBATION active; positive
inactive: End Point: IN VITRO CHROMOSOMAL ABERRATIONS, Test System: CHINESE HAMSTER LUNG CELLS (CHL), Metabolic Activation: RAT, LIVER, S-9, KC-400 inactive; negative | End Point: IN VITRO CHROMOSOMAL ABERRATIONS, Test System: CHINESE HAMSTER OVARY CELLS (CHO), Metabolic Activation: RAT, LIVER, S-9, AROCLOR 1254 inactive; negative | Test System: AMES SALMONELLA TYPHIMURIUM, Strain/Indicator: TA97, Metabolic Activation: NONE, Method: PREINCUBATION inactive; negative | Test System: AMES SALMONELLA TYPHIMURIUM, Strain/Indicator: TA97, Metabolic Activation: RAT, LIVER, S-9, AROCLOR 1254 (10%), Method: PREINCUBATION inactive; negative | Test System: AMES SALMONELLA TYPHIMURIUM, Strain/Indicator: TA98, Metabolic Activation: NONE, Method: PREINCUBATION inactive; negative | Test System: AMES SALMONELLA TYPHIMURIUM, Strain/Indicator: TA100, Metabolic Activation: NONE, Method: PREINCUBATION inactive; negative | Test System: AMES SALMONELLA TYPHIMURIUM, Strain/Indicator: TA100, Metabolic Activation: RAT, LIVER, S-9, AROCLOR 1254 (30%), Method: PREINCUBATION inactive; negative | Test System: AMES SALMONELLA TYPHIMURIUM, Strain/Indicator: TA1535, Metabolic Activation: HAMSTER, LIVER, S-9, AROCLOR 1254 (10%), Method: PREINCUBATION inactive; negative | Test System: AMES SALMONELLA TYPHIMURIUM, Strain/Indicator: TA1535, Metabolic Activation: NONE, Method: PREINCUBATION inactive; negative | Test System: AMES SALMONELLA TYPHIMURIUM, Strain/Indicator: TA1535, Metabolic Activation: RAT, LIVER, S-9, AROCLOR 1254 (10%), Method: PREINCUBATION inactive; negative
